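Step 1: Grow cells in 96-well plates. Step 2: Expose to compound for 48 hours at 5 concentrations. Step 3: Interpolate endpoints linearly; if unreached, use highest concentration. GI50: concentration for 50% inhibition of growth. TGI denotes the concentration required for complete inhibition of growth.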
Tests used:
Experiment in all cases: DTP human tumour cell line panel, 48 h
HCT-116 colon = tested on: HCT-116 colon
MALME-3M melanoma = tested on: MALME-3M melanoma
HOP-62 NSCLC = tested on: HOP-62 NSCLC
SF-295 CNS = tested on: SF-295 CNS
OVCAR-5 ovarian = tested on: OVCAR-5 ovarian
NCI/ADR-RES ovarian = tested on: NCI/ADR-RES ovarian
NCI-H522 lung = tested on: NCI-H522 lung
ACHN renal = tested on: ACHN renal
NCI-H23 lung = tested on: NCI-H23 lung
RPMI-8226 leukemia = tested on: RPMI-8226 leukemia

With `N#Cc1cccc(Nc2nccc(-c3cnn4ncccc34)n2)c1` the GI50 (HCT-116 colon) was 0.00443 µM, the TGI (HCT-116 colon) was 1.34 µM and the GI50 (MALME-3M melanoma) was 0.0076 µM. The TGI (MALME-3M melanoma) was 0.0209 µM, the GI50 (HOP-62 NSCLC) was 0.00749 µM and the GI50 (SF-295 CNS) was 0.00487 µM. The TGI (SF-295 CNS) was 0.0223 µM, the GI50 (OVCAR-5 ovarian) was 0.00823 µM and the TGI (OVCAR-5 ovarian) was > 25 µM. For the same molecule, the GI50 (NCI/ADR-RES ovarian) was 0.00697 µM, the GI50 (NCI-H522 lung) was 0.00752 µM and the TGI (NCI-H522 lung) was 0.0394 µM. The GI50 (ACHN renal) was 0.00487 µM, the TGI (ACHN renal) was > 25 µM and the GI50 (NCI-H23 lung) was 0.00686 µM. The TGI (NCI-H23 lung) was 0.0239 µM, the GI50 (RPMI-8226 leukemia) was 0.00763 µM and the TGI (RPMI-8226 leukemia) was 0.0212 µM.

In the case of `Cc1oc2c(c1C(=O)c1ccccc1)C(=O)c1ccccc1C2=O`, the TGI (HCT-116 colon) is reported as 8.76 µM, the TGI (MALME-3M melanoma) is reported as 4.53 µM and the TGI (HOP-62 NSCLC) is reported as 22.4 µM. For the same molecule, the TGI (SF-295 CNS) was 22.1 µM, the TGI (OVCAR-5 ovarian) was 31.5 µM and the TGI (NCI/ADR-RES ovarian) was 20.7 µM. For the same molecule, the TGI (NCI-H522 lung) was 5.86 µM, the TGI (ACHN renal) was 15.3 µM and the TGI (NCI-H23 lung) was 8.36 µM. The TGI (RPMI-8226 leukemia) was 23.8 µM.

Work on `O=C1c2cccc3c(N4CCN(c5ccc6c7c(cccc57)C(=O)N(CCN5CCNCC5)C6=O)CC4)ccc(c23)C(=O)N1CCN1CCNCC1` yielded a GI50 (HCT-116 colon) of 3.8 µM, a TGI (HCT-116 colon) of 42.9 µM and a GI50 (MALME-3M melanoma) of 17.5 µM. The TGI (MALME-3M melanoma) was 40 µM, the GI50 (HOP-62 NSCLC) was 7.96 µM and the TGI (HOP-62 NSCLC) was 27.7 µM. For the same molecule, the GI50 (SF-295 CNS) was 15.5 µM, the TGI (SF-295 CNS) was 35.7 µM and the GI50 (OVCAR-5 ovarian) was 15.1 µM. For the same molecule, the TGI (OVCAR-5 ovarian) was 34.1 µM, the GI50 (NCI/ADR-RES ovarian) was 13.8 µM and the TGI (NCI/ADR-RES ovarian) was 32.6 µM. It also gave a GI50 (NCI-H522 lung) of 18 µM, a TGI (NCI-H522 lung) of 44.2 µM and a GI50 (ACHN renal) of 7.23 µM. For the same molecule, the TGI (ACHN renal) was 22.5 µM, the GI50 (NCI-H23 lung) was 11 µM and the TGI (NCI-H23 lung) was 26.3 µM. The GI50 (RPMI-8226 leukemia) was 2.45 µM and the TGI (RPMI-8226 leukemia) was 8.55 µM.

`O=C(Oc1ccc([N+](=O)[O-])cc1)N1CCC(C(O)(c2ccc3c(c2)OCO3)c2ccc3c(c2)OCO3)CC1` was tested, and the GI50 (HCT-116 colon) was > 100 µM, the TGI (HCT-116 colon) was > 100 µM and the GI50 (MALME-3M melanoma) was > 100 µM. The TGI (MALME-3M melanoma) was > 100 µM, the GI50 (HOP-62 NSCLC) was > 100 µM and the TGI (HOP-62 NSCLC) was > 100 µM. The GI50 (SF-295 CNS) was > 100 µM, the TGI (SF-295 CNS) was > 100 µM and the GI50 (OVCAR-5 ovarian) was > 100 µM. The TGI (OVCAR-5 ovarian) was > 100 µM, the GI50 (NCI/ADR-RES ovarian) was > 100 µM and the TGI (NCI/ADR-RES ovarian) was > 100 µM. The GI50 (NCI-H522 lung) was > 100 µM, the TGI (NCI-H522 lung) was > 100 µM and the GI50 (ACHN renal) was > 100 µM. The TGI (ACHN renal) was > 100 µM, the GI50 (NCI-H23 lung) was > 100 µM and the TGI (NCI-H23 lung) was > 100 µM. The GI50 (RPMI-8226 leukemia) was > 100 µM and the TGI (RPMI-8226 leukemia) was > 100 µM.

Molecule `O=C(N/N=C/c1cc2ccccc2c2ccccc12)c1cc(O)c(O)c(O)c1` has a GI50 (HCT-116 colon) of 3.17 µM, a TGI (HCT-116 colon) of 12.4 µM and a GI50 (MALME-3M melanoma) of 2.27 µM. For the same molecule, the TGI (MALME-3M melanoma) was 7.19 µM, the GI50 (HOP-62 NSCLC) was 3.37 µM and the TGI (HOP-62 NSCLC) was 12.4 µM. For the same molecule, the GI50 (SF-295 CNS) was 14.9 µM, the TGI (SF-295 CNS) was 32.1 µM and the GI50 (OVCAR-5 ovarian) was 8.85 µM. For the same molecule, the TGI (OVCAR-5 ovarian) was 25.7 µM, the GI50 (NCI/ADR-RES ovarian) was 12.4 µM and the TGI (NCI/ADR-RES ovarian) was > 100 µM. The GI50 (NCI-H522 lung) was 2.06 µM, the TGI (NCI-H522 lung) was 5.64 µM and the GI50 (ACHN renal) was 3.25 µM. For the same molecule, the TGI (ACHN renal) was 12.6 µM, the GI50 (NCI-H23 lung) was 3.4 µM and the TGI (NCI-H23 lung) was 14.3 µM. It also gave a GI50 (RPMI-8226 leukemia) of 7.47 µM and a TGI (RPMI-8226 leukemia) of 46.1 µM.

`C=CC(=O)Nc1cc2c(Nc3ccc(OCc4ccccn4)c(Cl)c3)ncnc2cc1OCCN1CCOCC1` showed a GI50 (HCT-116 colon) of 2.99 µM, a TGI (HCT-116 colon) of 14.5 µM and a GI50 (MALME-3M melanoma) of 11.2 µM. The TGI (MALME-3M melanoma) was 42.1 µM, the GI50 (HOP-62 NSCLC) was 3.2 µM and the TGI (HOP-62 NSCLC) was > 100 µM. For the same molecule, the GI50 (SF-295 CNS) was 4.87 µM, the TGI (SF-295 CNS) was > 100 µM and the GI50 (OVCAR-5 ovarian) was 15.6 µM. For the same molecule, the TGI (OVCAR-5 ovarian) was > 100 µM, the GI50 (NCI/ADR-RES ovarian) was 3.77 µM and the TGI (NCI/ADR-RES ovarian) was > 100 µM. It also gave a GI50 (NCI-H522 lung) of 0.366 µM, a TGI (NCI-H522 lung) of 22.6 µM and a GI50 (ACHN renal) of 0.201 µM. The TGI (ACHN renal) was > 100 µM, the GI50 (NCI-H23 lung) was 5.24 µM and the TGI (NCI-H23 lung) was 20 µM. For the same molecule, the GI50 (RPMI-8226 leukemia) was 2.15 µM and the TGI (RPMI-8226 leukemia) was > 27.6 µM.

With `COc1cc(/C=C2\C(=O)N(c3c(Cl)cccc3Cl)c3ccccc32)cc(OC)c1O` the GI50 (HCT-116 colon) was 0.292 µM, the TGI (HCT-116 colon) was 4.83 µM and the GI50 (MALME-3M melanoma) was 0.537 µM. It also gave a TGI (MALME-3M melanoma) of 16 µM, a GI50 (HOP-62 NSCLC) of 1.23 µM and a TGI (HOP-62 NSCLC) of 20.3 µM. For the same molecule, the GI50 (SF-295 CNS) was 0.702 µM, the TGI (SF-295 CNS) was 16.7 µM and the GI50 (OVCAR-5 ovarian) was 8.04 µM. For the same molecule, the TGI (OVCAR-5 ovarian) was 25 µM, the GI50 (NCI/ADR-RES ovarian) was 0.793 µM and the TGI (NCI/ADR-RES ovarian) was 13.5 µM. For the same molecule, the GI50 (NCI-H522 lung) was 0.501 µM, the TGI (NCI-H522 lung) was 4.01 µM and the GI50 (ACHN renal) was 0.59 µM. The TGI (ACHN renal) was 14.2 µM, the GI50 (NCI-H23 lung) was 1.47 µM and the TGI (NCI-H23 lung) was 14.4 µM. The GI50 (RPMI-8226 leukemia) was 0.718 µM and the TGI (RPMI-8226 leukemia) was 11.7 µM.

`CCC(=S)N(C)O` was tested, and the TGI (HCT-116 colon) was 30.9 µM, the TGI (MALME-3M melanoma) was > 100 µM and the TGI (HOP-62 NSCLC) was > 95.3 µM. The TGI (SF-295 CNS) was > 100 µM, the TGI (OVCAR-5 ovarian) was > 100 µM and the TGI (NCI/ADR-RES ovarian) was > 100 µM. The TGI (NCI-H522 lung) was 8.28 µM, the TGI (ACHN renal) was > 100 µM and the TGI (NCI-H23 lung) was > 100 µM. For the same molecule, the TGI (RPMI-8226 leukemia) was 21.8 µM.
